From paper PMC11596366, “Silybin Derivatives Produced by γ-Irradiation and Their Tyrosinase Inhibitory Activities” (Molecules, 2024)
Blank lines part the entries; values can stand above or below the compound they belong to.

Legend:
[1] = target: Mushroom tyrosinase (Agaricus bisporus, UniProt C7FF04); assay: Mushroom tyrosinase inhibitory activity (L-tyrosine substrate, OD 475 nm); assay type: biochemical
Protocol: Mushroom tyrosinase (Sigma-Aldrich Co., St. Louis, MO, USA) was used for in vitro assays with slight modifications from a previously described method. […] After 5 min incubation at room temperature, 0.1 mL L-tyrosine (2 mM) was added and incubated for additional 20 min.

[2] = system: tyrosinase; parameters: method as in PMID 30871862; conditions: against both monophenolase and diphenolase; cited from earlier work

Mushroom tyrosinase, sequence (C7FF04 2-392): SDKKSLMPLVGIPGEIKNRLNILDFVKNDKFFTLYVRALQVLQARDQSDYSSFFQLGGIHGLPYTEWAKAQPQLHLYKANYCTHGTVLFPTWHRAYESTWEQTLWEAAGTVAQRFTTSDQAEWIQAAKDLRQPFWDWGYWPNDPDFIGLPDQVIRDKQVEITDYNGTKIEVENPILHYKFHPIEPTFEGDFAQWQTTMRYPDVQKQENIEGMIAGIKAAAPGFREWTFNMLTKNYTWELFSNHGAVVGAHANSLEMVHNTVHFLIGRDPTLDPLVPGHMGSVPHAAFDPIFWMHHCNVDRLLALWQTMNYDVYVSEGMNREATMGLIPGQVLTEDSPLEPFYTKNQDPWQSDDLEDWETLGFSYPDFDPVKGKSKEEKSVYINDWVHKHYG
Mushroom tyrosinase, sequence (G1K3P4 entry or part of it, further chain): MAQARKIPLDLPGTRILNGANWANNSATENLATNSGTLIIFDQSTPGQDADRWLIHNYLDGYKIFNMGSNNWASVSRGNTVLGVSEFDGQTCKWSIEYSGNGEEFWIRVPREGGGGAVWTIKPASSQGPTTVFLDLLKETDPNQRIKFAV

Structure (SMILES): OC[C@H]1O[C@@H](Oc2ccc(O)cc2)[C@H](O)[C@@H](O)[C@@H]1O [Arbutin, reference compound]
inhibition at 2300 µg/mL ([1]; concentration 2300 μg/mL, positive control): 50 ± 2.1%

IC50 ([1]; non-irradiated and irradiated silybin samples, arbutin positive control, L-tyrosine 2 mM, pH 6.5): >200 µg/mL
Inhibition of Tyrosinase (%) ([1]; sample concentration 50 μg/mL, L-tyrosine 2 mM, pH 6.5): 5.2 ± 0.2%
Inhibition of Tyrosinase (%) ([1]; sample concentration 100 μg/mL, L-tyrosine 2 mM, pH 6.5): 11.4 ± 0.5%
Inhibition of Tyrosinase (%) ([1]; sample concentration 200 μg/mL, L-tyrosine 2 mM, pH 6.5): 26.5 ± 0.8%
Structure (SMILES): COc1cc(C2Oc3cc([C@H]4Oc5cc(O)cc(O)c5C(=O)[C@@H]4O)ccc3OC2CO)ccc1O (stereo partly drawn) [Compound 0]

Structure (SMILES): COc1cc(C2Oc3cc([C@H]4Oc5cc(O)cc(O)c5C(=O)[C@@H]4O)ccc3OC2CO)ccc1O (stereo partly drawn) [silybin (1), silybin]
type of tyrosinase inhibition [2]: mixed type I (KI < KIS) inhibition
